Assays:
[1] = Maximum tolerated dose (MTD) without inducing hypercalcemia, oral daily dosing for four days, serum calcium assay; format: in vivo, C57BL/6 mice
Method: The maximum tolerated dose of the vitamin D3 compounds of the invention were determined in eight week-old female C57BL/6 mice (3 mice/group) dosed orally (0.1 ml/mouse) with various concentrations of Vitamin D3 analogs daily for four days. Analogs were formulated in miglyol for a final concentration of 0.01, 0.03, 0.1 0.3, 1, 3, 10, 30, 100 and 300 μg/kg when given at 0.1 ml/mouse p.o. daily. Blood for serum calcium assay was drawn by tail bleed on day five, the final day of the study. Serum calcium levels were determined using a colorimetric assay (Sigma Diagnostics, procedure no. 597). The highest dose of analog tolerated without inducing hypercalcemia (serum calcium >10.7 mg /dl) was taken as the maximum tolerated dose (MTD).

[2] = tested on: IFN-γ production in MLR (allogeneic PBMC); assay: IFN-γ production by allogeneic T cell activation in the mixed leukocyte response (MLR), ELISA; format: cell-based; settings: 120 h, MLR of allogeneic PBMC from 2 donors, 5 days, read-out: INF-γ IC50
Method: Immature dendritic cells (DC) were prepared as described in Romani, N. et al. (Romani, N. et al. (1996) J. Immunol. Meth. 196:137). IFN-γ production by allogeneic T cell activation in the mixed leukocyte response (MLR) was determined as described in Penna, G., et al., J. Immunol., 164: 2405-2411 (2000).
Briefly, peripheral blood mononuclear cells (PBMC) were separated from buffy coats by Ficoll gradient and the same number (3×10^5) of allogeneic PBMC from 2 different donors were co-cultured in 96-well flat-bottom plates. After 5 days, IFN-γ production in the MLR assay was measured by ELISA and the results expressed as amount (nM) of test compound required to induce 50% inhibition of IFN-γ production (IC50).

[3] = tested on: ILT3 surface molecule expression on immature dendritic cells; assay: ILT3 upregulation on monocyte-derived immature dendritic cells, flow cytometric analysis; format: cell-based, human; settings: immature dendritic cells cultured 24 hours with graded doses, up to 1000 nM
Method: Immature dendritic cells (DC) were prepared as described in Romani, N. et al. (Romani, N. et al. (1996) J. Immunol. Meth. 196:137). Briefly, peripheral blood mononuclear cells (PBMCs) were obtained from a buffy coat by ficoll-hypaque gradient (Pharmacia Biotec AB, Upsala, Sweden) and monocytes isolated from PBMCs by negative selected with a monocyte isolation kit (Milteny, Biotech, Bergish Gladblach, Germany). After isolation, monocytes were cultured for 6 to 7 days at a cell density of 1-2×10^6 in RPMI medium supplemented with 5% FetalClone I (Hyclone Laboratories, Logan, Utah) 2 mM L-glutamine, […], 1 mM sodium pyruvate and 1% nonessential amino acids, containing 800 U/ml GM-CSF (Mielogen 300, Schering-Plough) and 10 ng/ml interleukin (IL)-4 (PharMingen, San Diego, Calif.). Every other day, approximately 20% of the medium was removed and replaced by the same volume of fresh medium containing GM-CSF and IL-4.
After 6 to 7 days of culture, non-adherent cells (representing immature Dendritic Cells) were harvested and cultured for 24 hours in the presence of graded doses of the following vitamin D compounds: 1,25(OH)2D3; 1,3-O-Diacetyl-1,25 Dihydroxy-16-ene-24-Keto-19-nor Cholecalciferol (compound (2)); and the compounds Mycophenolate Mofetil (MMF) and Dexamethasone (DEX).
Immunoglobulin-Hike transcript-3 upregulation was evaluated by flow cytometric analysis. Briefly, cells were preincubated with […] human IgG (Sigma Chemical, St. Louis, Mo.) and subsequently stained with anti-human ILT3 antibody (see, e.g., Cella, M. et al. (1997) J. Exp. Med. 185:1743) followed by anti-mouse IgG-phycoerithryn (Jackson). Cells were then analyzed with a FACScan® flow cytometer using a Cell Quests software program (both from Beckton Dickinson, Mountain View, Calif.).

[4] = female C57BL/6 mice, p.o. daily for four days, highest dose without hypercalcemia (serum calcium >10.7 mg/dl)

| Compound | MTD relative to compound (1) ([1]; mice, oral, ratio of the MTD of compound (2) to that of the corresponding dihydroxy compound (1)) | MTD at 4 days ([1]; mouse, po, female C57BL/6 mice, p.o. daily for four days, highest dose without hypercalcemia (serum calcium >10.7 mg/dl)) | IC50 [2] | ILT3 expression on cell surface [3] | MTD (mice) [1, 4] |
| --- | --- | --- | --- | --- | --- |
| CC(=O)O[C@@H]1CC(=C/C=C2\CCC[C@]3(C)C([C@H](C)CCC(=O)C(C)(C)O)=CCC23)C[C@@H](OC(C)=O)C1 (some centres unmarked) [Compound (2), 1,3-O-Diacetyl-1,25-Dihydroxy-16-ene-24-Keto-19-nor-Cholecalciferol] | more than 300 times | > 300 µg/kg | 8 pM | upregulated |  |
| COc1c(C)c2c(c(O)c1C/C=C(\C)CCC(=O)OCCN1CCOCC1)C(=O)OC2 [MMF, Mycophenolate Mofetil] |  |  |  | fail to upregulate |  |
| 1,25(OH)2D3 |  |  |  | upregulated | 1 µg/kg |
| CC(CCC(=O)C(C)(C)O)C1=CCC2C(=CC=C3CC(O)CC(O)C3)CCCC12C (centres unmarked) [(1), 1,25-dihydroxy-16-ene-24-keto-19-nor-cholecalciferol] |  |  |  |  | 1 µg/kg |
